The text below walks through data of US20200199102A1, “COMPOUNDS THAT PARTICIPATE IN COOPERATIVE BINDING AND USES THEREOF” (Revolution Medicines, Inc., priority 2017, published 2020).

Where a SMILES comes first, the peptide text is derived from it. [ ]: non-standard residue; d: D form. MeBmt = C/C=C/C[C@@H](C)[C@@H](O)[C@H](NC)C(=O)O; NMeY = CN[C@@H](Cc1ccc(O)cc1)C(=O)O; NMeF = CN[C@@H](Cc1ccccc1)C(=O)O; NMeI = CC[C@H](C)[C@H](NC)C(=O)O; NMeT = CN[C@H](C(=O)O)[C@@H](C)O; NMeL = CN[C@@H](CC(C)C)C(=O)O; NMeV = CN[C@H](C(=O)O)C(C)C; NMeA = CN[C@@H](C)C(=O)O; dNMeA = CN[C@H](C)C(=O)O; Abu = CC[C@H](N)C(=O)O; Sar = CNCC(=O)O

The target of this test is T1, Cyclophilin A (Homo sapiens, UniProt P62937).
T1 construct: made in house
Kind of test: AlphaLISA inhibition of binding of biotinylated Cyclosporin A to FLAG tagged Cyclophilin A. Conditions: for % signal: AlphaLISA signal; for % signal / % inhibition of CsA binding to Cyclophilin A: test concentration not given; for IC50: read-out: IC50 value of CsA binding to Cyclophilin A. The source says:
The binding of compounds of the invention to Cyclophilin A can be determined using the following protocol.
This protocol utilizes Perkin Elmers AlphaLISA technology platform to detect cyclosporine analogues by measuring the inhibition of binding of biotinylated Cyclosporin A to FLAG tagged Cyclophilin A.
10×TBST Buffer (Boston BioProducts IBB-181), Biotinylated Cyclosporin A (in-house), FLAG tagged Cyclophilin A (in-house); anti-FLAG Donor beads (PerkinElmer AS103) and Streptavidin Acceptor beads (PerkinElmer AL125); Compounds in DMSO (in-house), Cyclosporin A (LC Labs Cat #C-6000).
Add 20 uL of 6 nM Biotinylated CsA working stock to each well of the 96-well plate. Add 1 uL of test compound (100% DMSO) to each well of the plate using the Janus MTD head and P20 tips (except control wells). Add 1 uL of DMSO to negative control wells and 1 uL of 500 uM Cyclosporin A solution to positive control wells. In the dark, add 20 uL of combined Donor/Acceptor beads to each well. Incubate in the dark for 30 minutes at room temperature. In the dark, add 10 uL of 25 nM Flag tagged CypA working stock to each well. Incubate in the dark for 60 minutes at room temperature. Protect plate from light until reading on Biotek Synergy2 Plate Reader; Alphalisa 96-well protocol (680 excitation/615 emission).
(In general: Alpha assays give light when donor and acceptor beads are brought close together.)

T1 sequence (P62937 whole entry, species assumed): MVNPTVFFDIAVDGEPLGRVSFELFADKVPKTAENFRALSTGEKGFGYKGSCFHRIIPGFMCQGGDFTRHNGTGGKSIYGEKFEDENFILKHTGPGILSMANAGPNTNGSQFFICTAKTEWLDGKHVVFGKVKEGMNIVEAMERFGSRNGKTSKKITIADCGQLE

As a reminder, the IC50 is the concentration that inhibits the measured activity by half. Regarding `C/C=C/C[C@@H](C)[C@@H](O)[C@H]1C(=O)N[C@@H](CC)C(=O)N(C)CC(=O)N(C)[C@H](C)C(=O)N[C@@H](C)C(=O)N(C)CC(=O)N[C@@H](C)C(=O)N[C@H](C)C(=O)N(C)[C@@H](CC(C)C)C(=O)N(C)[C@@H](CC(C)C)C(=O)N(C)[C@@H](C(C)C)C(=O)N1C` [Compound C19] (cyclo([MeBmt][Abu][Sar][dNMeA]A[Sar]A[dA][NMeL][NMeL][NMeV])), the “% signal” value came to 16.79%, the 50% inhibitory concentration (IC50) was less than 2 µM and the “% inhibition of CsA binding to Cyclophilin A” value (“% inhibition of CsA binding” for short) worked out at 83.21%.
For `C/C=C/C[C@@H](C)[C@@H](O)[C@H]1C(=O)N[C@@H](CC)C(=O)N(C)CC(=O)N(C)[C@@H](Cc2ccccc2)C(=O)N[C@@H](C)C(=O)N(C)CC(=O)N[C@@H](C)C(=O)N[C@H](C)C(=O)N(C)[C@@H](CC(C)C)C(=O)N(C)[C@@H](CC(C)C)C(=O)N(C)[C@@H](C(C)C)C(=O)N1C` [Compound C20] (cyclo([MeBmt][Abu][Sar][NMeF]A[Sar]A[dA][NMeL][NMeL][NMeV])), in that order: 2.77%, less than 2 µM and 97.23%.
With `C/C=C/C[C@@H](C)[C@@H](O)[C@H]1C(=O)N[C@@H](CC)C(=O)N(C)CC(=O)N(C)CC(=O)N[C@@H](C)C(=O)N(C)CC(=O)N[C@@H](C)C(=O)N[C@H](C)C(=O)N(C)[C@@H](CC(C)C)C(=O)N(C)[C@@H](CC(C)C)C(=O)N(C)[C@@H](C(C)C)C(=O)N1C` [Compound C21] (cyclo([MeBmt][Abu][Sar][Sar]A[Sar]A[dA][NMeL][NMeL][NMeV])), the “% signal” value turned out to be 31.08%, the IC50 is less than 2 µM and the “% inhibition of CsA binding” value was determined as 68.92%.
For `C/C=C/C[C@@H](C)[C@@H](O)[C@H]1C(=O)N[C@@H](CC)C(=O)N(C)CC(=O)N(C)[C@@H](CC(C)C)C(=O)N[C@@H](C)C(=O)N(C)CC(=O)N[C@@H](C)C(=O)N[C@H](C)C(=O)N(C)[C@@H](CC(C)C)C(=O)N(C)[C@@H](CC(C)C)C(=O)N(C)[C@@H](C(C)C)C(=O)N1C` [Compound C22] (cyclo([MeBmt][Abu][Sar][NMeL]A[Sar]A[dA][NMeL][NMeL][NMeV])), the “% signal” value is reported as 5.97%, the concentration for half-maximal inhibition (IC50) is less than 2 µM and the “% inhibition of CsA binding” value is 94.03%.
For `C/C=C/C[C@@H](C)[C@@H](O)[C@H]1C(=O)N[C@@H](CC)C(=O)N(C)CC(=O)N(C)[C@@H]([C@@H](C)O)C(=O)N[C@@H](C)C(=O)N(C)CC(=O)N[C@@H](C)C(=O)N[C@H](C)C(=O)N(C)[C@@H](CC(C)C)C(=O)N(C)[C@@H](CC(C)C)C(=O)N(C)[C@@H](C(C)C)C(=O)N1C` [Compound C23] (cyclo([MeBmt][Abu][Sar][NMeT]A[Sar]A[dA][NMeL][NMeL][NMeV])), in that order: 1.28%, less than 2 µM and 98.72%.
Regarding `C/C=C/C[C@@H](C)[C@@H](O)[C@H]1C(=O)N[C@@H](CC)C(=O)N(C)CC(=O)N(C)[C@@H]([C@@H](C)CC)C(=O)N[C@@H](C(C)C)C(=O)N(C)CC(=O)N[C@@H](C)C(=O)N[C@H](C)C(=O)N(C)[C@@H](CC(C)C)C(=O)N(C)[C@@H](CC(C)C)C(=O)N(C)[C@@H](C(C)C)C(=O)N1C` [Compound C25] (cyclo([MeBmt][Abu][Sar][NMeI]V[Sar]A[dA][NMeL][NMeL][NMeV])), the “% signal” value is recorded as 0.37% and the IC50 was less than 2 µM.
Consider `C/C=C/C[C@@H](C)[C@@H](O)[C@H]1C(=O)N[C@@H](CC)C(=O)N(C)CC(=O)N(C)[C@@H](Cc2ccccc2)C(=O)N[C@@H](C(C)C)C(=O)N(C)CC(=O)N[C@@H](C)C(=O)N[C@H](C)C(=O)N(C)[C@@H](CC(C)C)C(=O)N(C)[C@@H](CC(C)C)C(=O)N(C)[C@@H](C(C)C)C(=O)N1C` [Compound C27] (cyclo([MeBmt][Abu][Sar][NMeF]V[Sar]A[dA][NMeL][NMeL][NMeV])), for which the “% signal” value came out at 5.27%, the IC50 was less than 2 µM and the “% inhibition of CsA binding” value was found to be 94.73%.
For `C/C=C/C[C@@H](C)[C@@H](O)[C@H]1C(=O)N[C@@H](CC)C(=O)N(C)CC(=O)N(C)CC(=O)N[C@@H](C(C)C)C(=O)N(C)CC(=O)N[C@@H](C)C(=O)N[C@H](C)C(=O)N(C)[C@@H](CC(C)C)C(=O)N(C)[C@@H](CC(C)C)C(=O)N(C)[C@@H](C(C)C)C(=O)N1C` [Compound C28] (cyclo([MeBmt][Abu][Sar][Sar]V[Sar]A[dA][NMeL][NMeL][NMeV])), in that order: 1.06%, less than 2 µM and 98.94%.
Turning to `C/C=C/C[C@@H](C)[C@@H](O)[C@H]1C(=O)N[C@@H](CC)C(=O)N(C)CC(=O)N(C)[C@@H](CC(C)C)C(=O)N[C@@H](C(C)C)C(=O)N(C)CC(=O)N[C@@H](C)C(=O)N[C@H](C)C(=O)N(C)[C@@H](CC(C)C)C(=O)N(C)[C@@H](CC(C)C)C(=O)N(C)[C@@H](C(C)C)C(=O)N1C` [Compound C30], the “% signal” value is 0.06%, the IC50 was less than 2 µM and the “% inhibition of CsA binding” value is listed as 99.94%.
With `C/C=C/C[C@@H](C)[C@@H](O)[C@H]1C(=O)N[C@@H](CC)C(=O)N(C)CC(=O)N(C)[C@@H]([C@@H](C)O)C(=O)N[C@@H](C(C)C)C(=O)N(C)CC(=O)N[C@@H](C)C(=O)N[C@H](C)C(=O)N(C)[C@@H](CC(C)C)C(=O)N(C)[C@@H](CC(C)C)C(=O)N(C)[C@@H](C(C)C)C(=O)N1C` [Compound C31] (cyclo([MeBmt][Abu][Sar][NMeT]V[Sar]A[dA][NMeL][NMeL][NMeV])), the “% signal” value is −0.03%, the IC50 is less than 2 µM and the “% inhibition of CsA binding” value came to 100.03%.
The corresponding values for `C/C=C/C[C@@H](C)[C@@H](O)[C@H]1C(=O)N[C@@H](CC)C(=O)N(C)CC(=O)N(C)[C@@H](Cc2ccc(O)cc2)C(=O)N[C@@H](C(C)C)C(=O)N(C)CC(=O)N[C@@H](C)C(=O)N[C@H](C)C(=O)N(C)[C@@H](CC(C)C)C(=O)N(C)[C@@H](CC(C)C)C(=O)N(C)[C@@H](C(C)C)C(=O)N1C` [Compound C32] (cyclo([MeBmt][Abu][Sar][NMeY]V[Sar]A[dA][NMeL][NMeL][NMeV])) are 0.14%, less than 2 µM and 99.86%.
The corresponding values for `C/C=C/C[C@@H](C)[C@@H](O)[C@H]1C(=O)N[C@@H](CC)C(=O)N(C)CC(=O)N(C)[C@@H]([C@@H](C)CC)C(=O)N[C@@H](C(C)C)C(=O)N(C)[C@@H](CC(C)C)C(=O)N[C@@H](CC(C)C)C(=O)N[C@H](C)C(=O)N(C)[C@@H](CC(C)C)C(=O)N(C)[C@@H](CC(C)C)C(=O)N(C)[C@@H](C(C)C)C(=O)N1C` [Compound C45] (cyclo([MeBmt][Abu][Sar][NMeI]V[NMeL]L[dA][NMeL][NMeL][NMeV])) are −0.03%, less than 2 µM and 100.03%.
For `C/C=C/C[C@@H](C)[C@@H](O)[C@H]1C(=O)N[C@@H](CC)C(=O)N(C)CC(=O)N(C)[C@@H](C)C(=O)N[C@@H](C(C)C)C(=O)N(C)[C@@H](CC(C)C)C(=O)N[C@@H](CC(C)C)C(=O)N[C@H](C)C(=O)N(C)[C@@H](CC(C)C)C(=O)N(C)[C@@H](CC(C)C)C(=O)N(C)[C@@H](C(C)C)C(=O)N1C` [Compound C46] (cyclo([MeBmt][Abu][Sar][NMeA]V[NMeL]L[dA][NMeL][NMeL][NMeV])), in that order: 1.04%, less than 2 µM and 98.96%.
